Results on 44 molecules are retold here after patent publication US20020165236A1, “Compounds for the treatment of protozoal diseases” (priority 2001, published 2002).

Experiment [1] relates to multiresistant Dd2 strain of Plasmodium falciparum. The experiment in a line: antiplasmodial action, [8-3H]hypoxanthine incorporation, Dd2 strain. The format is cell-based. The conditions noted are these: read-out: in vitro antiplasmodial activity (IC50 value class). The procedure: For the determination of the antiplasmodial action of the compounds, the multiresistant Dd2 strain of Plasmodium falciparum was used. The incorporation of [8-^3H]hypoxanthine into the parasitic nucleic acids was measured. The plasmodia were incubated at 0.3% parasitaemia and an erythrocyte haematocrit of 2.5% in the presence of different concentrations of the compounds in a final volume of 200-μl. The medium employed was RPMI 1640 which contained 10% of heat-treated human serum and 3 mg/l of gentamycin. in the incubations, the concentrations of the compounds varied from 0.3 to 100 μM. After 48 h, each batch was treated with 50 µl of […] (1 mCi/ml) and incubated for a further 18 h. The cells were filtered off, washed and suspended in 20 μl of scintillation fluid. The radioactive hypoxanthine absorbed by the parasites was then quantified using a scintillation counter.
The results were presented graphically and the IC50 value was determined using a fitting function. The value IC50, the ‘inhibition constant’, indicates the value in μMol/1 at which 50% inhibition occurs.

Experiment [2] has as its system 3D7 chloroquine sensitive strain of Plasmodium falciparum. The experiment in a line: antiplasmodial activity against 3D7 strain. To be noted: read-out: in vitro antiplasmodial activity (IC50 value class). The format is cell-based. The procedure: Antiplasmodial activity against the 3D7 chloroquine sensitive strain of Plasmodium falciparumwas determined as described elsewhere (J. Med. Chem. (2001) 44(19), 3187-3194).

By IC50 is commonly meant the concentration at which inhibition is half-maximal.

As for `N=C(N)c1cccc(NC(=O)Nc2cccc([N+](=O)[O-])c2)c1` [Compound 5], the IC50 in experiment [1] lay in the range of 10000 to 100000 nM; in experiment [2], 1 to 10 µM.
For `N=C(N)c1cccc(NC(=O)Nc2cccc(C(F)(F)F)c2)c1` [Compound 10] the same measures were 1000 to 10000 nM and 1 to 10 µM.
For `N=C(N)c1cccc(NC(=O)Nc2cc(C(F)(F)F)cc(C(F)(F)F)c2)c1` [Compound 13] the same measures were 1000 to 10000 nM and 1 to 10 µM.
For `N=C(N)c1ccc(NC(=O)Nc2cc(C(F)(F)F)cc(C(F)(F)F)c2)cc1` [Compound 15] the same measures were 1000 to 10000 nM and 1 to 10 µM.
For `N=C(N)c1cccc(NC(=O)Nc2ccc3c(c2)S(=O)(=O)C=C3)c1` [Compound 18], the IC50 in experiment [1] is less than 1000 nM; in experiment [2], less than 1 µM.
In the case of `N=C(N)c1cccc(NC(=O)Nc2cccc(S(N)(=O)=O)c2)c1` [Compound 24], the IC50 in experiment [1] lay within 10000 to 100000 nM; in experiment [2], 10 to 100 µM.
For `N=C(N)c1cccc(NC(=O)Nc2ccc(S(=O)(=O)NCc3ccc(OC(F)(F)F)cc3)cc2)c1` [Compound 34] the same measures were less than 1000 nM and 1 to 10 µM.
For the molecule `N=C(N)c1cccc(NC(=O)Nc2ccc(S(=O)(=O)NNC(=O)c3ccc(-c4ccccc4)cc3)cc2)c1` [Compound 60], the IC50 in experiment [1] is 1000 to 10000 nM.
For the molecule `N=C(N)c1cccc(NC(=O)Nc2ccc(S(=O)(=O)c3ccccc3)cc2)c1` [Compound 61], the IC50 in experiment [1] is 1000 to 10000 nM; in experiment [2], 1 to 10 µM.
For `N=C(N)c1cccc(NC(=O)Nc2cccc(S(=O)(=O)c3ccccc3)c2)c1` [Compound 62] the same measures were 1000 to 10000 nM and 1 to 10 µM.
On to `N=C(N)c1cccc(NC(=O)Nc2ccc(S(=O)(=O)c3ccc([N+](=O)[O-])cc3)cc2)c1` [Compound 63, 3-{3-[4-(4-nitrobenzenesulfonyl)-phenyl]-ureido}-benzamidine], for which the half-maximal inhibitory concentration (IC50) in experiment [1] was less than 1000 nM.
`N=C(N)c1ccc(NC(=O)Nc2ccc(S(=O)(=O)c3ccccc3)cc2)cc1` [Compound 64]: the values for the IC50 in experiment [1] and in experiment [2] were less than 1000 nM and 1 to 10 µM, respectively.
As to `N=C(N)c1cccc(NC(=O)Nc2ccc(S(=O)(=O)c3ccc(NCCO)cc3)cc2)c1` [Compound 65], in experiment [1], the IC50 lay in the range of 1000 to 10000 nM.
For `CC(=O)Nc1cccc(NC(=O)Nc2cccc(C(=N)N)c2)c1` [Compound 66], the IC50 in experiment [1] fell in the range of 1000 to 10000 nM.
With `Cc1ccc(C(=O)Nc2ccc(NC(=O)Nc3cccc(C(=N)N)c3)cc2O)cc1` [Compound 67], the concentration for half-maximal inhibition (IC50) in experiment [1] was in the range of 1000 to 10000 nM; in experiment [2] it was 1 to 10 µM.
`COc1ccccc1C(=O)Nc1cccc(NC(=O)Nc2cccc(C(=N)N)c2)c1` [Compound 68]: in experiment [1], the IC50 is 1000 to 10000 nM.
Same read-out and setting: as for `COc1ccc(C(=O)Nc2cccc(NC(=O)Nc3cccc(C(=N)N)c3)c2)cc1` [Compound 69], the figure is less than 1000 nM.
The same measure, in the same setting: as for `N=C(N)c1cccc(NC(=O)Nc2cccc(NC(=O)c3ccc(-c4ccccc4)cc3)c2)c1` [Compound 70], the figure is 1000 to 10000 nM.
As for `Cc1cc(-c2onc(C)c2C(=O)Nc2ccc(NC(=O)Nc3cccc(C(=N)N)c3)cc2)no1` [Compound 71], the IC50 in experiment [1] was 1000 to 10000 nM.
Still for that read-out and setting: as for `N=C(N)c1cccc(NC(=O)Nc2cccc(C(=O)NC(c3ccccc3)c3ccccc3)c2)c1` [Compound 72], the figure is 1000 to 10000 nM.
For the molecule `N=C(N)c1cccc(NC(=O)Nc2ccc(C(=O)NCc3ccc(S(N)(=O)=O)cc3)cc2)c1` [Compound 73, 4-[3-(3-carbamimidoylphenyl)-ureido]-N-(4-sulfamoylbenzyl)-benzamide], the half-inhibitory concentration (IC50) in experiment [1] fell in the range of 1000 to 10000 nM.
Same read-out and setting: as for `N=C(N)c1cccc(NC(=S)Nc2ccc(S(=O)(=O)NCc3ccc(C(F)(F)F)cc3)cc2)c1` [Compound 74], the figure is less than 1000 nM.
Same read-out and setting: as for `N=C(N)c1cccc(NC(=S)Nc2ccc(S(=O)(=O)NCc3cccc(F)c3)cc2)c1` [Compound 75], the figure is less than 1000 nM; as for `N=C(N)c1cccc(NC(=S)Nc2ccc3c(c2)S(=O)(=O)C=C3)c1` [Compound 76], less than 1000 nM; as for `N=C(N)c1cccc(NC(=S)Nc2ccc(S(=O)(=O)c3ccc(NCCO)cc3)cc2)c1` [Compound 77], 1000 to 10000 nM.
In the case of `N=C(N)c1cccc(NC(=S)Nc2ccc(S(=O)(=O)NCc3cccc(C(F)(F)F)c3)cc2)c1` [Compound 78], the half-maximal inhibitory concentration (IC50) in experiment [1] is less than 1000 nM.
Still for that read-out and setting: as for `COC(=O)c1cc(NC(=S)Nc2cccc(C(=N)N)c2)cc(C(F)(F)F)c1` [Compound 79], the figure is less than 1000 nM; as for `CCN(CC)C(=O)c1cccc(NC(=S)Nc2cccc(C(=N)N)c2)c1` [Compound 80], less than 1000 nM; as for `CN(C)CCNC(=N)c1cccc(NC(=O)Nc2ccc(S(=O)(=O)c3ccc([N+](=O)[O-])cc3)cc2)c1` [Compound 81], 1000 to 10000 nM.
Turning to `N=C(Nc1cccnc1)c1cccc(NC(=O)Nc2ccc(S(=O)(=O)c3ccc([N+](=O)[O-])cc3)cc2)c1` [Compound 82], the IC50 in experiment [1] is less than 1000 nM.
Still for that read-out and setting: for `N=C(NCCN1CCCC1)c1cccc(NC(=O)Nc2ccc(S(=O)(=O)c3ccc([N+](=O)[O-])cc3)cc2)c1` [Compound 83] the value was 1000 to 10000 nM; for `N=C(NCC1CCCO1)c1cccc(NC(=O)Nc2ccc(S(=O)(=O)c3ccc([N+](=O)[O-])cc3)cc2)c1` (stereo not shown) [Compound 84], 1000 to 10000 nM; for `N=C(NO)c1cccc(NC(=O)Nc2ccc(S(=O)(=O)c3ccc([N+](=O)[O-])cc3)cc2)c1` [Compound 85], less than 1000 nM.
`COC(=O)c1cc(NC(=O)Nc2cccc(C(=N)Nc3cccnc3)c2)cc(C(F)(F)F)c1` [Compound 86]: in experiment [1], the concentration for half-maximal inhibition (IC50) was 1000 to 10000 nM.
Take `COC(=O)c1cc(NC(=O)Nc2cccc(C(=N)NCCN(C)C)c2)cc(C(F)(F)F)c1` [Compound 87]: the half-maximal inhibitory concentration (IC50) in experiment [1] lay within 1000 to 10000 nM.
The same measure, in the same setting: as for `COC(=O)c1cc(NC(=O)Nc2cccc(C(=N)NCCN3CCCC3)c2)cc(C(F)(F)F)c1` [Compound 88], the figure is 1000 to 10000 nM; as for `N=C(Nc1cccnc1)c1cccc(NC(=O)Nc2ccc(S(=O)(=O)NCc3ccc(S(N)(=O)=O)cc3)cc2)c1` [Compound 89], 1000 to 10000 nM; as for `N=C(NCCN1CCOCC1)c1cccc(NC(=O)Nc2ccc(S(=O)(=O)NCc3ccc(S(N)(=O)=O)cc3)cc2)c1` [Compound 90], less than 1000 nM.
Take `O=C(Nc1cccc(C2=NCCN2)c1)Nc1cccc(C(F)(F)F)c1` [Compound 91]: the half-inhibitory concentration (IC50) in experiment [1] was less than 1000 nM.
For the molecule `N=C(NCCN1CCOCC1)c1cccc(NC(=O)Nc2cccc(C(F)(F)F)c2)c1` [Compound 93], the IC50 in experiment [1] fell in the range of 1000 to 10000 nM.
Same read-out and setting: for `N=C(NO)c1cccc(NC(=O)Nc2ccc(S(=O)(=O)NCc3ccc(S(N)(=O)=O)cc3)cc2)c1` [Compound 96] the value was 1000 to 10000 nM.
Take `N=C(Nc1ccc(-c2ccccc2)cc1)c1cccc(NC(=O)Nc2cccc(C(F)(F)F)c2)c1` [Compound 100]: the half-maximal inhibitory concentration (IC50) in experiment [1] lay in the range of 1000 to 10000 nM.
On to `N=C(N)c1cccc(NC(=O)C(=O)Nc2ccc(S(=O)(=O)NCc3ccccc3)cc2)c1` [Compound 101, N-(4-benzylsulfamoylphenyl)-N′-(3-carbamimidoyl-phenyl)-oxalamide], for which the concentration for half-maximal inhibition (IC50) in experiment [1] lay within 1000 to 10000 nM.
With `N=C(N)c1cccc(NC(=O)C(=O)Nc2cccc(S(=O)(=O)NCc3ccccc3)c2)c1` [Compound 102, N-(3-benzylsulfamoylphenyl)-N′-(3-carbamimidoyl-phenyl)-oxalamide], the 50% inhibitory concentration (IC50) in experiment [1] was in the range of 10000 to 100000 nM.
